Data on 42 substances can be found in patent publication US11214803B2, “Modulators of YAP1 expression” (Ionis Pharmaceuticals, Inc., priority 2019, dated 2022).

Strand notation (5' to 3'): a small letter for the sugar, then the base; units joined by * are phosphorothioate-linked, units joined directly phosphodiester-linked; [ ] holds rarer units or linkages, { } end groups; capitals alone tell only the bases. k = constrained ethyl (cEt); [5mC] = 5-methylcytosine; d = 2'-deoxy (DNA)

For the first data set, the system named is Yap1 mRNA. Put plainly: Antisense inhibition of human Yap1 in A-431 cells by cEt gapmers, single dose (Example 4, RTS4814). In kind it is cell-based. As to conditions: Table 14; A-431 cells, 5,000 cells per well, free uptake, 2,000 nM, approximately 48 hours; RTS4814; normalized to RIBOGREEN; Yap1 mRNA relative to untreated control; * = targets amplicon region of primer probe set. The procedure: Modified oligonucleotides were designed to target a Yap1 nucleic acid and were tested for their effect on Yap1 mRNA level in vitro. The modified oligonucleotides were tested in a series of experiments that had similar culture conditions. Cultured A-431 cells at a density of 5,000 cells per well were treated using free uptake with 2,000 nM of modified oligonucleotide. After a treatment period of approximately 48 hours, RNA was isolated from the cells and Yap1 mRNA levels were measured by quantitative real-time RTPCR. Human primer probe set RTS4814 was used to measure mRNA levels. Yap1 mRNA levels were normalized to total RNA content, as measured by RIBOGREEN®. Results are presented in the tables below as percent control of the amount of Yap1 mRNA relative to untreated control cells (% UTC). The modified oligonucleotides with percent control values marked with an asterisk (*) target the amplicon region of the primer probe set. Additional assays may be used to measure the potency and efficacy of the modified oligonucleotides targeting the amplicon region.
The newly designed modified oligonucleotides in the Tables below were designed as 3-10-3 cEt gapmers. The gapmers are 16 nucleosides in length, wherein the central gap segment comprises of ten 2′-deoxynucleosides and is flanked by wing segments on the 5′ direction and the 3′ direction comprising three nucleosides each. Each nucleoside in the 5′ wing segment and each nucleoside in the 3′ wing segment has a cEt sugar modification. The internucleoside linkages throughout each gapmer are phosphorothioate (P═S) linkages. All cytosine residues throughout each gapmer are 5-methylcytosines.
“Start site” indicates the 5′-most nucleoside to which the gapmer is targeted in the human gene sequence. “Stop site” indicates the 3′-most nucleoside to which the gapmer is targeted human gene sequence. […] Activity of the modified oligonucleotide may be defined in a different experiment.
Consider “1075488 (antisense k[5mC]*kA*kG*dA*dA*dT*dA*dA*dG*dG*dG*dA*dG*kA*kT*k[5mC]) [Compound 1075488]”, for which the “YAP1 (% UTC)” value came to 56 % UTC.
For the substance “1075360 (kA*kG*kG*d[5mC]*dA*dA*d[5mC]*dA*dA*d[5mC]*dA*dT*d[5mC]*kT*kA*kA; antisense) [Compound 1075360]”, the “YAP1 (% UTC)” value stood at 50 % UTC.
As for “1075392 (kG*kA*k[5mC]*dG*dG*dG*dT*dG*dA*dA*d[5mC]*d[5mC]*dT*kG*kT*kT; antisense) [Compound 1075392]”, the “YAP1 (% UTC)” value is listed as 95 % UTC.
Consider “1075872 (k[5mC]*kA*kA*dT*dT*dA*dT*dG*dA*d[5mC]*dA*dA*dA*k[5mC]*kA*kG; antisense) [Compound 1075872]”, for which the “YAP1 (% UTC)” value amounted to 21 % UTC.
Regarding “1076352 (kG*kA*kT*dA*dA*d[5mC]*d[5mC]*d[5mC]*dT*dG*dA*dA*dA*k[5mC]*kA*kA; antisense) [Compound 1076352]”, the “YAP1 (% UTC)” value is listed as 37 % UTC.
For the substance “1075328 (k[5mC]*kT*k[5mC]*dG*d[5mC]*dA*dA*dA*dG*d[5mC]*d[5mC]*dT*d[5mC]*kT*kT*k[5mC]; antisense) [Compound 1075328]”, the “YAP1 (% UTC)” value is reported as 21 % UTC.
The same measure, in the same setting: the figure for “1075456 (antisense kT*kT*kA*d[5mC]*dG*dA*dA*dA*dT*dG*dT*dT*dT*kA*kG*kT) [Compound 1075456]” is 61 % UTC.

The same data set, now with this note: Table 15; A-431 cells, 5,000 cells per well, free uptake, 2,000 nM, approximately 48 hours; RTS4814; normalized to RIBOGREEN; Yap1 mRNA relative to untreated control; * = targets amplicon region of primer probe set.
For the substance “1076161 (kT*k[5mC]*kT*dT*dA*dT*dA*d[5mC]*dT*dA*dG*dT*dA*k[5mC]*kG*kG; antisense) [Compound 1076161]”, the “YAP1 (% UTC)” value was determined as 14 % UTC.
For “1074465 (kA*kA*kT*d[5mC]*dT*dA*dT*dA*dT*dT*dA*dG*dA*kG*kT*kA; antisense) [Compound 1074465]”, the “YAP1 (% UTC)” value is 44 % UTC.
Same read-out and setting: the figure for “1074241 (antisense kG*kA*kT*dG*dT*d[5mC]*dT*dT*dT*dG*d[5mC]*d[5mC]*dA*kT*k[5mC]*kT) [Compound 1074241]” is 72 % UTC; for “1076225 (kA*kT*kA*dT*dA*dA*dA*d[5mC]*d[5mC]*dT*dT*dG*d[5mC]*kT*kA*k[5mC]; antisense) [Compound 1076225]” it is 66 % UTC; for “1075329 (kA*kG*kG*dG*dA*dA*dA*dA*d[5mC]*dT*dT*dT*dG*k[5mC]*kA*k[5mC]; antisense) [Compound 1075329]” it is 26 % UTC.
On the same count and under the same terms, under “1074113 (k[5mC]*kT*k[5mC]*d[5mC]*dA*dA*d[5mC]*dT*d[5mC]*d[5mC]*d[5mC]*dT*dT*kG*kA*k[5mC]; antisense) [Compound 1074113]” stands 61 % UTC.
The same measure, in the same setting: under “1075681 (kT*kA*kA*dT*dT*dA*dT*dT*dA*d[5mC]*d[5mC]*d[5mC]*d[5mC]*kT*kT*k[5mC]; antisense) [Compound 1075681]” stands 37 % UTC; under “1076513 (antisense k[5mC]*kA*kT*dT*dA*dA*d[5mC]*dA*d[5mC]*dT*d[5mC]*d[5mC]*dT*k[5mC]*kA*kG) [Compound 1076513]”, 36 % UTC.
“1074273 (antisense k[5mC]*kT*kT*dA*dT*dG*dG*dT*dT*dT*dA*dT*dA*kT*kA*kG) [Compound 1074273]”: the “YAP1 (% UTC)” value stood at 34 % UTC.
Still for that read-out and setting: under “1074177 (antisense k[5mC]*k[5mC]*kT*d[5mC]*d[5mC]*d[5mC]*d[5mC]*d[5mC]*dG*dA*d[5mC]*dG*d[5mC]*kG*k[5mC]*kA) [Compound 1074177]” stands 69 % UTC; under “1074625 (antisense kA*kT*kA*dA*dG*dG*dG*d[5mC]*dT*dT*dA*dT*dT*k[5mC]*kT*kA) [Compound 1074625]”, 42 % UTC.

The data set is the same for the next values; noted with them: Table 16; A-431 cells, 5,000 cells per well, free uptake, 2,000 nM, approximately 48 hours; RTS4814; normalized to RIBOGREEN; Yap1 mRNA relative to untreated control cells.
In the case of “1075010 (antisense kA*kA*kT*dA*dA*dT*d[5mC]*dG*dA*dA*d[5mC]*dA*dT*kT*kG*kT) [Compound 1075010]”, the “YAP1 (% UTC)” value was 88 % UTC.
Turning to “1076482 (antisense k[5mC]*kT*kT*dT*dA*dG*dA*d[5mC]*dT*dA*dA*dG*dT*kA*kA*kG) [Compound 1076482]”, the “YAP1 (% UTC)” value is 107 % UTC.
For “1074722 (antisense kA*kG*kG*dA*dA*dG*dA*dT*d[5mC]*dT*d[5mC]*d[5mC]*dA*kT*kA*kT) [Compound 1074722]”, the “YAP1 (% UTC)” value was 57 % UTC.
For the substance “1075074 (antisense kT*kA*kT*dA*dG*dT*dA*dA*dG*dA*d[5mC]*dT*dA*kA*kT*k[5mC]) [Compound 1075074]”, the “YAP1 (% UTC)” value was 105 % UTC.

The data set is the same for the next values; noted with them: Table 17; A-431 cells, 5,000 cells per well, free uptake, 2,000 nM, approximately 48 hours; RTS4814; normalized to RIBOGREEN; Yap1 mRNA relative to untreated control cells.
On to “1075523 (kA*kA*kT*dT*dA*dA*dG*dG*dG*d[5mC]*d[5mC]*d[5mC]*dA*k[5mC]*kA*kA; antisense) [Compound 1075523]”, for which the “YAP1 (% UTC)” value was 78 % UTC.
Turning to “1076099 (k[5mC]*k[5mC]*kT*d[5mC]*dA*dA*dA*dA*d[5mC]*dT*dT*dG*dG*kA*kT*kT; antisense) [Compound 1076099]”, the “YAP1 (% UTC)” value stood at 41 % UTC.
Still for that read-out and setting: the figure for “1074307 (antisense kG*kT*kG*dG*d[5mC]*d[5mC]*dT*d[5mC]*dA*d[5mC]*d[5mC]*dT*dG*k[5mC]*k[5mC]*kG) [Compound 1074307]” is 105 % UTC; for “1075075 (antisense kA*kA*kT*dT*dT*dT*dA*dT*dA*dA*dG*d[5mC]*d[5mC]*k[5mC]*kA*k[5mC]) [Compound 1075075]” it is 9 % UTC; for “1074371 (antisense kG*kT*kT*dG*dA*dT*dA*dG*dT*dA*dT*d[5mC]*dA*k[5mC]*k[5mC]*kT) [Compound 1074371]” it is 31 % UTC.
As to “1074851 (antisense kA*kT*kT*dG*dT*dT*dA*dT*dG*dA*dT*dA*dG*kG*k[5mC]*kA) [Compound 1074851]”, the “YAP1 (% UTC)” value was 6 % UTC.
On the same count and under the same terms, under “1074947 (antisense kT*k[5mC]*k[5mC]*dA*dA*dA*dA*d[5mC]*d[5mC]*d[5mC]*dT*dT*dT*kG*kG*kT) [Compound 1074947]” stands 99 % UTC.

Still in this data set, the particulars now being: Yap1 mRNA remaining as percent of untreated control; 3-10-3 cEt gapmers; A-431 cells; Table 36.
For “1074710 (antisense k[5mC]*kT*k[5mC]*dT*dA*dG*dA*dA*d[5mC]*dA*dG*d[5mC]*dT*kG*k[5mC]*k[5mC]) [compound 1074710]”, the “YAP1 (% UTC)” value was determined as 42 % UTC.
Same read-out and setting: under “1075414 (antisense k[5mC]*kA*kT*dA*d[5mC]*dT*dA*dA*dT*d[5mC]*d[5mC]*d[5mC]*dT*k[5mC]*kT*kT) [compound 1075414]” stands 41 % UTC; under “1074358 (antisense kT*k[5mC]*kG*dA*dG*dG*dG*dA*d[5mC]*dA*d[5mC]*dT*dG*kT*kA*kG) [compound 1074358]”, 17 % UTC.
“1075862 (antisense k[5mC]*kT*kA*dA*dT*dA*dA*d[5mC]*dT*dT*dG*dT*d[5mC]*kT*kA*k[5mC]) [compound 1075862]”: the “YAP1 (% UTC)” value turned out to be 67 % UTC.
In the case of “1075542 (kT*kG*kA*dG*dA*dA*dA*dG*dG*dT*dT*d[5mC]*d[5mC]*kT*kG*kA; antisense) [compound 1075542]”, the “YAP1 (% UTC)” value is reported as 66 % UTC.
Still for that read-out and setting: the figure for “1075638 (antisense kA*kT*kT*dA*dA*d[5mC]*d[5mC]*dA*dG*dA*dA*dG*d[5mC]*k[5mC]*kT*kG) [compound 1075638]” is 79 % UTC.

Staying with this data set, now noted: Yap1 mRNA remaining as percent of untreated control; 3-10-3 cEt gapmers; A-431 cells; Table 37.
Turning to “1075319 (antisense kT*kA*kT*dA*dA*d[5mC]*dA*dA*dT*d[5mC]*dA*dT*d[5mC]*k[5mC]*kT*kA) [compound 1075319]”, the “YAP1 (% UTC)” value came out at 59 % UTC.
On the same count and under the same terms, under “1075031 (antisense kA*kT*kT*dT*dA*dA*dT*dA*dT*dT*d[5mC]*dG*dA*k[5mC]*kA*k[5mC]) [compound 1075031]” stands 52 % UTC; under “1075351 (antisense kA*kG*kA*dT*dT*dA*dA*dA*dG*d[5mC]*dT*d[5mC]*dA*kT*kT*kG) [compound 1075351]”, 38 % UTC.
In the case of “1074391 (kG*kT*k[5mC]*dA*dG*dA*dA*d[5mC]*dT*d[5mC]*dA*dA*dA*kG*k[5mC]*kT; antisense) [compound 1074391]”, the “YAP1 (% UTC)” value was found to be 14 % UTC.
On to “1075735 (kG*kA*kA*dT*d[5mC]*dG*dA*dT*dG*dT*dG*dT*dT*kG*k[5mC]*kG; antisense) [compound 1075735]”, for which the “YAP1 (% UTC)” value came to 17 % UTC.
On the same count and under the same terms, the figure for “1074903 (antisense k[5mC]*k[5mC]*kT*dA*dT*dT*dA*dA*d[5mC]*dT*dT*dT*dT*kG*kG*kG) [compound 1074903]” is 87 % UTC.
Consider “1075447 (antisense k[5mC]*kA*k[5mC]*dT*dA*dT*dA*dA*dA*dT*d[5mC]*d[5mC]*dT*k[5mC]*kA*kT) [compound 1075447]”, for which the “YAP1 (% UTC)” value was 96 % UTC.
